Experimental findings from patent US20240108632A1, “PHARMACEUTICAL COMPOSITION FOR ADMINISTRATION AS OPHTHALMIC DROP TO PATIENT REQUIRING OPTIC NERVE PROTECTION” (PINOTBIO, INC., priority 2020, published 2024) are described below.

For series [1], the system named is cynomolgus macaque model of glaucoma. Kind of series: Retinal nerve fiber layer thickness by OCT in cynomolgus macaque model of glaucoma. The class given is in vivo. As to the method:
(§1) Three weeks before the first laser trabeculoplasty, IOP was measured via a tomometer (SPHPR-320-61), once per week for three weeks. The first laser trabeculoplasty was performed in one eye for each macaque. Two weeks later, laser trabeculoplasty was repeated in the same eye (Week 0).
(§2) One week after the second laser trabeculoplasty (Week 1), IOP was measured and retinal nerve fiber layer (RNFL) thickness was measured via optical coherence tomography (OCT; RS3000 Advance, Nidek Co. Ltd., Gamagoori, Japan) (SPHPR- 320-58). The day after group assignment, the eyes were instilled with either vehicle, KR-67607 or brimonidine twice a day. On Day 1, the effect of treatment on IOP over time was measured before treatment and 1, 2, 4, and 8 hrs. after instillation. At the same time, blood samples were obtained. From the effects of dosing observed on Day 1, it was determined that 2 hrs. was a reasonable time time-to-test following instillation for subsequent observations.
(§3) Intraocular pressures were obtained at Weeks 2, 3, 4, 5, 7 and 9. Optical coherence tomography and color fundus photography (CFP) were performed at Weeks 1, 3, 5, 7, and 9 (SPHPR-320-56).

Series [2] shares this test system. The series can be described thus: Intraocular pressure in cynomolgus macaque model of glaucoma (laser trabeculoplasty). Format: in vivo. As to conditions: for maximum decrease of IOP, glaucomatous eye: 2 hours after instillation. The procedure: as §1, §2, §3
Following measurements at Week 9, G3 macaques was randomized into two groups based on IOP, and the effect of KR-67607 (1.5 mg/mL, 3.0 mg/mL) on IOP was evaluated.

The nature of series [3]: Appearance of HP-β-CD solutions of KR-67607 prepared at various pH. Format: physicochemical. As to conditions: solution before entrapment under alkaline conditions; 3% HP-β-CD, 0.15% KR-67607. The procedure:
HP-β-CD aqueous solutions of various pH were prepared by adding 3% (w/v) appropriate amount of HP-β-CD to 0.08M NaOH aqueous solution, tertiary purified water, and 1M HCl aqueous solution. To each of the above different HP-β-CD solutions, 0.15% (w/v) KR-67607 was added and stirred for 1 hour, and then potassium dihydrogen phosphate, sodium chloride, and povidone K90 were mixed to a concentration of 0.68%, 0.435%, and 1.2% (w/v), respectively, to dissolve completely. The pH of the solution was adjusted to around 7.4 with 0.1 N HCl or 0.1 N NaOH aqueous solution, and then the total volume was adjusted by adding sterile purified water. The prepared solution was filtered through a 0.2 μm PVDF filter and evaluated for comparative appearance against a black background, and the results are shown in FIG. 5.

For series [4], the system named is cynomolgus macaque model of glaucoma. Kind of series: Funduscopy in cynomolgus macaque model of glaucoma. The class given is in vivo. The procedure:
as §1, §2, §3

Another series concerns DBA/2 mice. The series can be described thus: Intraocular pressure in ocular hypertensive glaucoma mouse model. The class given is in vivo. Particulars: for IOP reduced compared to control group: week 16, 20 μl both eyes twice daily. As to the method: In this study, we evaluated the efficacy of KR-67607 in a mouse model of glaucoma using DBA/2 mice, which are congenitally predisposed to persistently elevated intraocular pressure (FIG. 9).
IOP was measured after the acclimatization period and then every 4 weeks. IOP was measured in respiratory anesthetized mice according to the manufacturer's instructions and the mean value presented after six measurements was recorded.

The subject of the next series is GFAP, TNFα and BAX mRNA. Kind of series: RT-PCR of retinal tissue from ocular hypertension rabbits. Format: in vivo, New Zealand White rabbit. As to conditions: after Example 33 dosing. The procedure:
Following Example 33, in order to separate the sample (eyeball) to observe the glaucoma treatment effect on the drug in addition to the change in intraocular pressure caused by the drug administration, the eyeball was enucleated and about 0.2 mL of the aqueous humor was collected, and then the retina (including some choroid) was collected. The collected aqueous humor and retina were placed in 1.5 mL polypropylene tubes pre-marked with sample information, frozen in a deep freezer (approximately −80° C.) until analysis, and delivered to the test site for analysis.
RNA or proteins were extracted from the eyes and analyzed by RT-PCR and western blotting to compare the expression of genes and proteins that can confirm the glaucoma treatment effect or optic nerve protection effect.
RNA was extracted from the isolated retinal tissue and analyzed by RT-PCR to compare the expression of genes that can confirm the glaucoma treatment effect or retinal protection effect. The tissues were lysed using TrizolTM Reagent (Invitrogen, CA, US) to extract the soluble RNA, and the RNA was precipitated by adding isopropanol (100%; Sigma-aldrich, MO, US).
Subsequently, cDNA was synthesized from the isolated RNA using a cDNA synthesis kit (AccuPower RT Premix; Bioneer, KR) and used for RT-PCR. The primer information used for RT-PCR analysis is as follows.
The synthesized DNA strands were then analyzed after separation on a 1.5% agarose gel using gene-specific primers (FIG. 28).

On to `CC1CN(CC(=O)NC2C3CC4CC2CC(C(N)=O)(C4)C3)S(=O)(=O)N(c2c(Cl)cc(C(F)(F)F)cc2Cl)C1` [KR-67607, (1s, 3R,4s,5S,7s)-4-(2-(6-(2,6-dichloro-4-(trifluoromethyl)phenyl)-4-methyl-1,1-dioxido-1,2,6-thiadiazinan-2-yl)acetamido)adamantane-1-carboxamide], for which the “RNFL thickness compared with vehicle treatment” value in series [1] (5 weeks, unpaired t-test, p<0.05) is on record as “greater”. Besides, the “number of eyes with RNFL thickness greater than 50% compared to baseline” value in series [1] (Week 9, 6 eyes per group) was found to be 3. The “RNFL thinning in glaucomatous eyes” value in series [1] (repeated treatment, compared to vehicle-treated (G1)) is recorded as “significantly inhibited”. Also, the “inhibitory effect on RNFL thinning relative to brimonidine” value in series [1] (summary) is “greater than that of brimonidine”. Further, the “maximum decrease of IOP, contralateral normal eye” value in series [2] (Day 1 dosing, 2 hours after dosing) is “did not decrease”. For the same molecule, in series [2] (Day 1 dosing), the “maximum decrease of IOP, glaucomatous eye” value worked out at 9.2±4.1 mmHg. Also, in series [2] (KR-67607 1.5 mg/mL, after Week 9), the “effect on IOP (Extra dosing)” value is reported as “did not affect”. For the same molecule, the “maximum decrease of IOP (Extra dosing)” value in series [2] (KR-67607 3.0 mg/mL, 1 hour after instillation) is recorded as 12.0±2.8 mmHg. Moreover, the “effect on trough IOP value” in series [2] (glaucomatous eyes, repeated treatment twice a day, brimonidine tartrate 0.1%, KR-67607 1.5 mg/mL) is “did not significantly affect”. In series [2] (over weeks), the “maximum decrease of IOP, normal eye” value is reported as “did not decrease” and the “maximum decrease of IOP, glaucomatous eye” value came to 10.4±2.2 mmHg. Also, the “IOP-decreasing effect in glaucomatous eyes relative to brimonidine” value in series [2] (summary) was “smaller than that of brimonidine”. For the same molecule, the “entrapment ability of HP-β-CD for KR-67607 (appearance, FIG. 5)” value in series [3] is listed as “enhanced”. The “animals with small optic discs compared to G1 in the glaucomatous eyes” value in series [4] (Week 5) is “four of six animals”. Also, the “animals with a small or lesser degree of cupping” value in series [4] (Week 9) is listed as “three animals”. Moreover, the “week from which significant IOP reduction was seen” value in the series on DBA/2 mice (high dose KR-67607 (1.5 mg/ml)) turned out to be 4 week. Moreover, in the series on DBA/2 mice (low-dose KR-67607 (0.75 mg/ml)), the “week from which IOP-lowering effects were observed” value is 12 week. In addition, the “IOP reduced compared to control group” value with DBA/2 mice (high-dose KR-67607 (1.5 mg/ml)) amounted to 26%. Besides, in the series with DBA/2 mice (low concentration KR-67607 (0.75 mg/ml)), the “IOP reduced compared to control group” value came out at 16%. In addition, in the series with GFAP, TNFα and BAX mRNA, the “mRNA expression level of BAX in retinal tissues” value is reported as “tended to decrease”, the “mRNA expression level of GFAP in retinal tissues” value is recorded as “tended to decrease” and the “mRNA expression level of TNFa in retinal tissues” value is listed as “tended to decrease”.
